According to patent publication US8354414B2, “Substituted bicyclic pyrimidines” (Cephalon, Inc, priority 2006, dated 2013):
Read-outs that look alike come from different tables or passages of the source.

Experiments:
[1] = target: T1, His6-GSK-3β (Homo sapiens, UniProt P49841); experiment: Inhibition of His6-GSK-3β kinase activity (ELISA-based format, time-resolved fluorescence readout); type: biochemical; conditions: read-out: GSK3β IC50
T1 construct: made in house; host or cells: Sf21 insect cells (baculovirus)
T1 sequence (P49841 2-419): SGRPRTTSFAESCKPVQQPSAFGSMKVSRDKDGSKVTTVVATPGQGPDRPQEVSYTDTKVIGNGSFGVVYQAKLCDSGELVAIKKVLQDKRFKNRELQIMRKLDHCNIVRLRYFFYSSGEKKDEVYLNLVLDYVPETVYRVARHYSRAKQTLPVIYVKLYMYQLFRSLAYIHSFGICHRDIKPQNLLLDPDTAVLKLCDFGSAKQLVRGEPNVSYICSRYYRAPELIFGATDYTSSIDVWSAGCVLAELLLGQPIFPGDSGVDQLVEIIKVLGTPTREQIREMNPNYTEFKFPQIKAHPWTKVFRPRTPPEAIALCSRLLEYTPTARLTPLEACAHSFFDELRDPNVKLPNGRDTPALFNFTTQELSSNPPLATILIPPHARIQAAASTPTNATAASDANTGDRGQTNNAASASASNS
Outline: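 Plate-bound recombinant GST-Rb substrate was phosphorylated for 30 min at 37° C by baculovirus-expressed His6-GSK-3β (200 ng/ml) at 20 μM ATP, 10 mM MgCl2, 2.5% DMSO. Europium time-resolved fluorescence of anti-phospho-Ser780 Rb signal gave inhibition, fitted to IC50.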

[2] = target: T2, CDK5/GST-p25 (Homo sapiens, UniProt Q00535); experiment: Inhibition of CDK5/GST-p25 kinase activity (ELISA with time-resolved fluorescence readout); type: biochemical
T2 construct: The final construct, encoding for full-length human CDK5; made in house; host or cells: Sf21 insect cells (baculovirus co-infection)
T2 sequence (Q00535 whole entry): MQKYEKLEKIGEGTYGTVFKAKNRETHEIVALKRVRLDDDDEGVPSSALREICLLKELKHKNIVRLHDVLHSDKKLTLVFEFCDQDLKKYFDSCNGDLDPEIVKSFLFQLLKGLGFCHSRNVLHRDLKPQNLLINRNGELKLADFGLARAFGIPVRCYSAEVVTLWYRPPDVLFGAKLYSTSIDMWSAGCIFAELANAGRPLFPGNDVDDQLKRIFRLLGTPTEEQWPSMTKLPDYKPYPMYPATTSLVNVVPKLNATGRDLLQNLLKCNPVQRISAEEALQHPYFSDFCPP
T2 sequence (Q15078 108-307 partner limits assumed): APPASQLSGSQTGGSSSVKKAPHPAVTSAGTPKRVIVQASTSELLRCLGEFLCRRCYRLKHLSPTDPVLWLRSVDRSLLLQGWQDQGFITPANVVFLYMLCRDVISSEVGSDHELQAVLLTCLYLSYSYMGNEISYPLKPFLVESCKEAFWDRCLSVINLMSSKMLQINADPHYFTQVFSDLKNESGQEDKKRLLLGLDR
Outline: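 The substrate, GST-Rb(773-928), was immobilised on plates and phosphorylated for 20 min at 37 °C by 2 ng/ml CDK5/GST-p25 in HEPES pH 7.2 with 10 µM ATP and 10 mM MgCl2. Both proteins were human and co-expressed in insect cells. Ser-780 phosphorylation was read by europium time-resolved fluorescence and converted to IC50.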

| SMILES | IC50 ([1]; numeric bounds) [nM] | IC50 ([2]; class symbols) [nM] | melting point [°C] | IC50 ([1]; class symbols) [nM] | IC50 ([2]; numeric bounds) [nM] |
| --- | --- | --- | --- | --- | --- |
| O=C1Nc2ccccc2C1c1ncnc2c1cnn2C1CCCC1 (stereo not drawn) [Example 62, 3-(1Cyclopentyl-1H-pyrazolo[3,4-d]pyrimidin-4-yl)-1,3-dihydro-indol-2-one] | > 3000 | > 10000 | 228 to 231 |  |  |
| N#Cc1cccc2c1NC(=O)C2c1ncnc2c1cnn2C1CCCC1 (stereo not drawn) [Example 64, 3-(1-Cyclopentyl-1H-pyrazolo [3,4-d]pyrimidin-4-yl)-2-oxo-2,3-dihydro-1H-indole-7-carbonitrile] |  | > 10000 | 327 to 332 | > 10000 |  |
| O=C1Nc2ccccc2C1c1nc(NCCc2cccnc2)nc2nn(C3CCCC3)cc12 (stereo not drawn) [Example 155, 3-[2-cyclopentyl-6-(2-pyridin-3-yl-ethylamino)-2H-pyrazolo [3,4-d]pyrimidin-4-yl]-1,3-dihydro-indol-2-one] |  |  | 258 to 260 | 300 to 3000 | > 1000 |
| CC(C)CNc1nc(C2C(=O)Nc3ccccc32)c2cn(C3CCCC3)nc2n1 (stereo not drawn) [Example 244, 3-(2-Cyclopentyl-6-isobutylamino-2H-pyrazolo[3,4-d]pyrimidin-4-yl)-1,3-dihydro-indol-2-one] | > 1000 | > 10000 | 280 to 282 |  |  |
| C[C@H](O)CNc1nc(C2C(=O)Nc3ccc(Br)cc32)c2cn(C)nc2n1 (stereo partly drawn) [Example 304, 5-Bromo-3-[6-(2-(S)-hydroxypropylamino)-2-methyl-2H-pyrazolo [3,4-d]pyrimidin-4-yl]-1,3-dihydro-indol-2-one] |  | < 300 | 338 to 340 | < 300 |  |

Continued, values first:

| IC50 ([1]; numeric bounds) [nM] | IC50 ([2]; class symbols) [nM] | melting point [°C] | IC50 ([1]; class symbols) [nM] | IC50 ([2]; numeric bounds) [nM] | SMILES |
| --- | --- | --- | --- | --- | --- |
|  | < 300 | 300 to 301 | < 300 |  | COCCn1cc2c(C3C(=O)Nc4ccc(Br)cc43)nc(NCc3cccnc3)nc2n1 (stereo not drawn) [Example 232, 5-Bromo-3-{2-(2-methoxy-ethyl)-6-[(pyridin-3-ylmethyl)-amino]-2H-pyrazolo[3,4-d]pyrimidin-4-yl}-1,3-dihydro-indol-2-one] |
|  | < 300 | 271 to 274 | < 300 |  | CC(C)Cn1cc2c(C3C(=O)Nc4ccc(Br)cc43)nc(NCCCN3CCOCC3)nc2n1 (stereo not drawn) [Example 265, 5-Bromo-3-[2-isobutyl-6-(3-morpholin-4-yl-propylamino)-2H-pyrazolo [3,4-d]pyrimidin-4-yl]-1,3-dihydro-indol-2-one] |
|  | < 300 | 298 to 299 | < 300 |  | CCOCCn1cc2c(C3C(=O)Nc4ccc(Cl)cc43)nc(NCc3ccncc3)nc2n1 (stereo not drawn) [Example 214, 5-Chloro-3-{2-(2-ethoxy-ethyl)-6-[(pyridine-4-ylmethyl)-amino]-2H-pyrazolo[3,4-d]pyrimidin-4-yl}-1,3-dihydro-indol-2-one] |
|  | < 300 | > 300 | < 300 |  | CCCn1cc2c(C3C(=O)Nc4ccc(Br)cc43)nc(NCc3ccncc3)nc2n1 (stereo not drawn) [Example 190, 5-Bromo-3-{2-propyl-6-[(pyridine-4-ylmethyl)-amino]-2H-pyrazolo[3,4-d]pyrimidin-4-yl}-1,3-dihydro-indol-2-one] |
|  | < 300 | 270 to 274 | < 300 |  | CCCn1cc2c(C3C(=O)Nc4ccc(Br)cc43)nc(NCCN(C)C)nc2n1 (stereo not drawn) [Example 197, 5-Bromo-3-[6-(2-dimethylamino-ethylamino)-2-propyl-2H-pyrazolo[3,4-d]pyrimidin-4-yl]-1,3-dihydro-indol-2-one] |
|  | < 300 | > 300 | < 300 |  | CCCn1cc2c(C3C(=O)Nc4ccc(Br)cc43)nc(NCCCN)nc2n1 (stereo not drawn) [Example 199, 3-[6-(3-Amino-propylamino)-2-propyl-2H-pyrazolo [3,4-d]pyrimidin-4-yl]-5-bromo-1,3-dihydro-indol-2-one] |
